# According to patent US9422244B2, “Synthesis of substituted pyrazoline carboxamidine derivatives” (Abbvie Bahamas Ltd., priority 2010, dated 2016):
row,melting point,Compound
1,149 to 150 °C,"CC1(C)C=NN(C(N)=S)C1 [compound 31, 4,4-Dimethyl-4,5-dihydro-pyrazole-1-carbothioic acid amide]"
2,109 to 110 °C,"NS(=O)(=O)c1ccc(Cl)s1 [compound 30, 5-Chloro-thiophene-2-sulfonic acid amide]"
3,184 to 185 °C,"NS(=O)(=O)c1c(Cl)nc2sccn12 [compound 21, 6-Chloro-imidazo[2,1-b]thiazole-5-sulfonic acid amide]"
4,91 to 92 °C,"CCN/C(=N\S(=O)(=O)/C=C/c1ccccc1)N1CC(CC)C=N1 (stereo not drawn) [compound 29, Trans-2-phenyl-ethenesulfonic acid ethylamino-(4-ethyl-4,5-dihydro-pyrazol-1-yl)-methylene-amide]"
5,164 to 165 °C,"CC1(C)C=NN(/C(N)=N/S(=O)(=O)c2ccc(Cl)s2)C1 [compound 33, 5-Chloro-thiophene-2-sulfonic acid amino-(4,4-dimethyl-4,5-dihydro-pyrazol-1-yl)-methylene-amide]"

# Further lines, the molecule ahead of its results:
row,Compound,melting point
1,"CCN/C(=N\S(=O)(=O)c1ccc(N)cc1)N1CC2(C=N1)CCCC2 [compound 4, 4-Amino-N-[(2,3-diaza-spiro[4.4]non-3-en-2-yl)-ethylamino-methylene]-benzenesulfonamide]",141 to 142 °C
2,"CCNC(=S)N1CC(C)(C)C=N1 [compound 5, 4,4-Dimethyl-4,5-dihydro-pyrazole-1-carbothioic acid ethylamide]",66 to 67 °C
3,"O=C(Nc1ccc(S(=O)(=O)Cl)cc1Br)C(F)(F)F [compound 13, 3-Bromo-4-(2,2,2-trifluoro-acetylamino)-benzenesulfonyl chloride]",60 to 61 °C
4,"O=C(Nc1ccccc1Br)C(F)(F)F [compound 12, N-(2-Bromo-phenyl)-2,2,2-trifluoro-acetamide]",58 to 59 °C
5,"CCNC(=S)N1CC2(C=N1)CCCC2 [compound 1, 2,3-Diazaspiro[4.4]non-3-ene-2-carbothioic acid ethylamide]",120 to 121 °C
6,CCN/C(=N\S(=O)(=O)c1ccccc1Cl)N1CCC(CC)=N1,87 to 88 °C
7,"NS(=O)(=O)c1ccc(NC(=O)C(F)(F)F)c(Br)c1 [compound 14, N-(2-Bromo-4-sulfamoyl-phenyl)-2,2,2-trifluoro-acetamide]",171 to 172 °C
